The values below are quoted from earlier work in patent US10758506B2, “Amino acid compositions for the treatment of porcine epidemic diarrhea” (priority 2014, dated 2020).

The conditions of the data set: Health Phys., 106(6):734-44, 2014.
Consider `N[C@@H](CS)C(=O)O` [cysteine], for which the “active anion secretion and/or paracellular permeability” value was “activate active anion secretion and/or increase paracellular permeability”. For `NC(=O)C[C@H](N)C(=O)O` [asparagine], the “active anion secretion and/or paracellular permeability” value is “activate active anion secretion and/or increase paracellular permeability”. With `NC(=O)CC[C@H](N)C(=O)O` [glutamine], the “active anion secretion and/or paracellular permeability” value is reported as “activate active anion secretion and/or increase paracellular permeability”. Consider `N=C(N)NCCC[C@H](N)C(=O)O` [Arginine], for which the “active anion secretion and/or paracellular permeability” value is recorded as “activate active anion secretion and/or increase paracellular permeability”. For `N[C@@H](Cc1c[nH]cn1)C(=O)O` [histidine], the “active anion secretion and/or paracellular permeability” value is listed as “activate active anion secretion and/or increase paracellular permeability”. As for `CSCC[C@H](N)C(=O)O` [methionine], the “active anion secretion and/or paracellular permeability” value is “activate active anion secretion and/or increase paracellular permeability”. Regarding `C[C@H](N)C(=O)O` [alanine], the “active anion secretion and/or paracellular permeability” value is “activate active anion secretion and/or increase paracellular permeability”. On to `N[C@@H](Cc1ccccc1)C(=O)O` [phenylalanine], for which the “active anion secretion and/or paracellular permeability” value is listed as “activate active anion secretion and/or increase paracellular permeability”. In the case of `CC(C)C[C@H](N)C(=O)O` [leucine], the “active anion secretion and/or paracellular permeability” value was “activate active anion secretion and/or increase paracellular permeability”.

For `N[C@@H](CCC(=O)O)C(=O)O` [glutamic acid], the “active anion secretion and/or paracellular permeability” value is listed as “activate active anion secretion and/or increase paracellular permeability”.
